According to paper PMC4301037, “Identification and Structure–Function Analysis of Subfamily Selective G Protein-Coupled Receptor Kinase Inhibitors” (ACS Chemical Biology, 2014):
Read-outs that look alike come from different tables or passages of the source.

Molecular target: T1, bovine GRK5 (Bos taurus, UniProt P43249)
T1 construct: when using full-length kinases as the receptor[37] instead of isolated kinase domains; made in house
Test: Primary DSF inhibitor screen, GRK5
Format: binding

[1] = 10 μM compound, 2 μM kinase, relative to DMSO control, read-out: ΔTm, primary screen, GRK5
[2] = 10 μM compound, 2 μM kinase, relative to DMSO control

T1 sequence (P43249 whole entry, the tested form may be a part): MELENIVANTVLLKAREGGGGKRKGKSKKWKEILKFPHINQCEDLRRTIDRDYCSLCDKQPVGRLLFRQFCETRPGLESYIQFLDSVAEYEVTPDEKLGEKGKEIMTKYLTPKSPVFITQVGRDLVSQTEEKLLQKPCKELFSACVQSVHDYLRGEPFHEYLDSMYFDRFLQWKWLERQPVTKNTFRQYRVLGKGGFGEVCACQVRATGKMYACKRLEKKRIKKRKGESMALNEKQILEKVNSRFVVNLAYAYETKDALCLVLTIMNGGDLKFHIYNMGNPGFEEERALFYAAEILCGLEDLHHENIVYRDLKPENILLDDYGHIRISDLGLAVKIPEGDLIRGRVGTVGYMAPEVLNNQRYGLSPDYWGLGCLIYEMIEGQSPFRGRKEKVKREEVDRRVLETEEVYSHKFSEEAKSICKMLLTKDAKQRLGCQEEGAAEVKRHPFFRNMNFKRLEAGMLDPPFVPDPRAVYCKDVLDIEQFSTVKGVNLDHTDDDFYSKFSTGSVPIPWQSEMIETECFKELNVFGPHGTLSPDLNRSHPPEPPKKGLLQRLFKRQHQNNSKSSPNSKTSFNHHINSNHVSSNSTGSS

Compound | ΔTm at 10 µM [1] [°C] | ΔTm, primary screen, GRK5 [2] [°C] | other results
NC(=O)c1cccc(Nc2nccc(Nc3cccc(F)c3)n2)c1 [GW759710A] | 2.68 | – | –
O=C1NC(=O)C(c2c[nH]c3ccccc23)=C1c1c[nH]c2ccccc12 [BIM 4, bisindolylmaleimide IV] | – | 3.11 | –
CC(C)=Cc1cccc2c1C(=NNc1ccc(S(N)(=O)=O)cc1)C(=O)N2 [GW396574X] | 2.08 | – | –
c1cc(-c2cnn3nc(N4CCOCC4)ccc23)nc(NC2CC2)n1 [GW708336X] | – | – | ΔTm at 10 µM (read-out: ΔTm, primary screen, GRK5, 10 μM compound, 2 μM kinase, relative to DMSO control): 2.8 °C
O=C(Nc1n[nH]c2nc(-c3ccco3)c(Br)cc12)C1CC1 [SB-739452] | 2.03 | – | –
COc1ccc2c(c1)/C(=C/c1cnc[nH]1)C(=O)N2 [SU9516, 3-[1-(3H-Imidazol-4-yl)-meth-(Z)-ylidene]-5-methoxy-1,3-dihydro-indol-2-one] | 3.59 | – | –
O=C1Nc2ccccc2/C1=C\c1cnc[nH]1 [(Z,E)-3-(Imidazol-4-ylmethylene)indolin-2-one] | – | 4.8 | –
Nc1nc(Nc2ccc(S(N)(=O)=O)cc2)nn1C(=O)c1c(F)cccc1F [Aurora/Cdk Inhibitor] | – | 5.41 | –
O=C1Nc2ccccc2/C1=C1\CCc2cc(O)ccc21 [GR105659X] | 3.25 | – | –
O=C(Nc1ccc(Oc2ccc3nc(NC(=O)c4ccco4)[nH]c3c2)cc1)Nc1cc(C(F)(F)F)ccc1F [GW683134A] | 2.32 | – | –
NS(=O)(=O)c1ccc(Nc2cc(-c3cccc(O)c3)n[nH]2)cc1 [GW831090X] | 2.96 | – | –
CC(C)(C)c1nc2c3ccc(F)cc3c3c(=O)[nH]ccc3c2[nH]1 [JAK Inhibitor I, 2-(1,1-Dimethylethyl)-9-fluoro-3,6-dihydro-7H-benz[h]-imidaz[4,5-f]isoquinolin-7-one] | – | 8.13 | –
Nc1nccc(C#Cc2cncnc2Nc2ccc(OCc3cccc(F)c3)c(Cl)c2)n1 [GW799251X] | 4.33 | – | –
CN(C)CCCn1cc(C2=C(c3c[nH]c4ccccc34)C(=O)NC2=O)c2ccccc21.Cl [BIM I, 2-[1-(3-Dimethylaminopropyl)-1H-indol-3-yl]-3-(1H-indol-3-yl)maleimide, HCl] | – | 6.45 | –
NC1=NC(=O)C(=C2CCNC(=O)c3[nH]c(Br)cc32)N1 [10Z-Hymenialdisine, 4-(2-Amino-4-oxo-2-imidazolidin-5-ylidene)-2-bromo-4,5,6,7-tetrahydropyrrolo[2,3-c]azepin-8-one] | – | 4.5 | –
CC(=O)Nc1cccc(C#Cc2cncnc2Nc2ccc(OCc3cccc(F)c3)c(Cl)c2)c1 [GW703087X] | 3.36 | – | –
Cn1cc(/C=C2\C(=O)Nc3ccc(S(N)(=O)=O)cc32)c2ccccc21 [Syk Inhibitor] | – | 3.6 | –
NC(=O)c1sc(-n2cnc3ccc(C(F)(F)F)cc32)cc1OCc1ccccc1Br [GW853606X] | 4.43 | – | –

Compound | ΔTm at 10 µM [1] [°C] | ΔTm, primary screen, GRK5 [2] [°C] | other results
COc1cc(N2CCN(C(C)C)CC2)ccc1Nc1nc(Nc2ccc(F)cc2C(N)=O)c2cc[nH]c2n1 [GSK1220512A] | 3.05 | – | –
Nc1ncnc2occ(-c3ccc(NC(=O)Nc4cc(C(F)(F)F)ccc4F)cc3)c12 [GW770249X] | 3.19 | – | –
Cc1cc(C=C2C(=O)C=CC2=O)cc(C)c1O [TX-1918, 2-((3,5-dimethyl-4-hydroxyphenyl)-methylene)-4-cyclopentene-1,3-dione] | – | 2.21 | –
CC(C)n1cnc2c(Nc3cccc(Cl)c3)nc(NCCO)nc21 [Compound 52, 2-(2-Hydroxyethylamino)-6-(3-chloroanilino)-9-isopropylpurine] | – | 5.53 | –
O [Water] | – | 2.01 | –
Cn1cc(C=C2C(=O)Nc3cccnc32)c2ccccc21 [GW441756X] | 2.82 | – | –
Nc1nc(-c2ccc(F)cc2)c(-c2ccc3ncccc3n2)s1 [GW785804X] | 3.16 | – | –
CCCN1CCC=C(c2ccc(Nc3nc(Nc4ccccc4C(N)=O)c4cc[nH]c4n3)c(C)c2)C1 [GSK994854A] | 4.92 | – | –
Cc1cncc2cccc(S(=O)(=O)N3CCCNC[C@@H]3C)c12 [H-1152, (S)-(+)-2-Methyl-1-[(4-methyl-5-isoquinolinyl)sulfonyl]homopiperazine] | – | 5.95 | –
NS(=O)(=O)c1ccc(NN=C2C(=O)Nc3ccc(C(=O)NCCCn4ccnc4)cc32)cc1 [GW290597X] | 3.72 | – | –
Wee1/Chk1 inhibitor | – | 4.89 | –
CCS(=O)(=O)c1ccc(OC)c(Nc2ncc(-c3ccccc3Cl)o2)c1 [GW622055X] | 2.14 | – | –
Nc1cc2ncnc(Nc3cccc(Br)c3)c2cc1N [4-[(3-Bromophenyl)amino]-6,7-diaminoquinazoline] | – | 6.16 | –
O=C1c2ccccc2-c2n[nH]c3cccc1c23 [JNK Inhibitor II, Anthra[1,9-cd]pyrazol-6(2H)-one] | – | 2.19 | –
Cn1cc(C2=C(c3ccc(Cl)cc3Cl)C(=O)NC2=O)c2ccccc21 [SB216763] | 2.78 | – | –
Nc1ncnc2occ(-c3ccc(NC(=O)Nc4cccc(C(F)(F)F)c4)cc3)c12 [GW795493X] | 4.96 | – | –
c1ccc(COc2ccc(Nc3ncnc4ccc(-c5ccco5)cc34)cc2)cc1 [GW284372X] | 3.6 | – | –

Second part, led by results:

ΔTm at 10 µM [1] [°C] | ΔTm, primary screen, GRK5 [2] [°C] | Compound | other results
2.93 | – | CN(C)C(=O)O[C@@H]1CN[C@@H](C#Cc2cc3ncnc(Nc4ccc(OCc5cccc(F)c5)c(Cl)c4)c3s2)C1 [GSK238063A] | –
4.25 | – | CS(=O)(=O)CCNCc1ccc(-c2ccc3ncnc(Nc4ccc(OCc5ccccc5)c(Cl)c4)c3c2)o1 [GW574783B] | –
3.97 | – | CN1CCN(CCCNc2nc3ccc(Oc4ccc(NC(=O)Nc5cc(C(F)(F)F)ccc5F)cc4)cc3[nH]2)CC1 [GW700494A] | –
– | 2.67 | CS(=O)(=O)c1cccc(CNc2nc(Nc3ccc4c(c3)CCC(=O)N4)ncc2C(F)(F)F)c1 [PF 573228] | –
2.97 | – | CCNC(=O)O[C@H]1CN[C@H](C#Cc2cc3ncnc(Nc4ccc(OCc5cccc(F)c5)c(Cl)c4)c3s2)C1 [GSK192082A] | –
– | 2.87 | O=C1NC(=O)/C(=C/c2ccc(-c3nc4ccccc4s3)o2)S1 [BAS 09687195] | –
– | 2.57 | NC(=O)Nc1sc(-c2ccccc2)cc1C(N)=O [IKK-2 Inhibitor VI] | –
4.8 | – | NS(=O)(=O)c1ccc(NC=C2C(=O)Nc3ccc4ncsc4c32)cc1 [GW589933X] | –
3.29 | – | CS(=O)(=O)CCN(CC#N)Cc1ccc(-c2ccc3ncnc(Nc4ccc(OCc5cccc(F)c5)c(Cl)c4)c3c2)o1 [GW616030X] | –
2.11 | – | Fc1cccc(COc2ccc(Nc3ncnc4sc(-c5ccco5)cc34)cc2Cl)c1 [GSK969786A] | –
– | 2.43 | Cl.Cl.NCCNc1ncc(C(N)=O)c(Nc2cccc(C(F)(F)F)c2)n1 [Syk Inhibitor II] | –
– | 3.6 | Cdk1/2 Inhibitor III | –
4.08 | – | COC(=O)Nc1nc2ccc(Oc3ccc(NC(=O)Nc4cccc(Br)c4)cc3)cc2[nH]1 [GW694234A] | –
– | 6.19 | Cl.Cn1cc(C2=C(c3c4n(c5ccccc35)CCC(CN)C4)C(=O)NC2=O)c2ccccc21 (stereo not shown) [BIM 10, Bisindolylmaleimide X, HCl] | –
3.24 | – | O=C(O)c1ccc2c3c1cccc3c(=O)n1c3ccccc3nc21 [STO-609] | –
2.51 | – | COC(=O)Nc1nc2ccc(Oc3cccc(NC(=O)Nc4cc(C(F)(F)F)ccc4F)c3)cc2[nH]1 [GW659386A] | –
4.75 | – | CCCN1CCCC(c2ccc(Nc3nc(Nc4cc(F)ccc4C(N)=O)c4cc[nH]c4n3)c(OC)c2)C1 (stereo not shown) [GSK1173862A] | –
